Test results taken from patent US9884843B2 (Peloton Therapeutics, Inc., priority 2013, dated 2018).
Where two headings read alike, the source gives them in different places.

How the values were obtained:
786-O-Hif-Luc cells = assay: Luciferase Assay (HIF responsive element reporter); type: cell-based; details: read-out: Mean Luciferease EC50
Procedure: A pool of infected cells were then selected against 2 μg/mL of puromycin (P8833, Sigma) for 10 days followed by limited dilution to select single clones.
Each concentration was tested in triplicate. After about 24 hours, luciferase activity was determined using ONE-Glo Luciferase Assay Reagent (E6110, Promega) following the manufacturer's recommended procedure. EC50 were calculated by using Dotmatics software.

[1] = molecular target: HIF-2α HIS TAG-PASB Domain (Homo sapiens, UniProt Q99814); assay: biochemical; type: binding
Source text: The term “scintillation proximity assay” (SPA) refers to a homogenous assay in which light is emitted when a radiolabeled ligand is brought into close proximity to a radiosensitive bead. The assay typically contains a target protein that contains a tag (e.g., His Tag, Glutathione S-transferase Tag). The tag on the protein is used to bind the target protein to the scintillation bead. Radiolabeled ligand (e.g., labeled with tritium) that binds to the protein is now in close proximity to the bead, and when the raidolabel (e.g., tritium) decays, the high energy particle hits the bead resulting in the emission of light that is detected by a detector, such as photomultiplier tube or CCD camera. When unlabeled ligands or compounds that bind to the protein are used in the assay, they displace the radiolabeled ligand, resulting in loss of signal.
The total assay volume was about 100 μL in the following configuration: 2-μL compound in DMSO, 88 μL buffer with protein and probe and 10 μL of SPA beads. […] To each compound, 88 μL of the buffer solution was then added. […] The percent inhibition was determined and IC50 values were calculated using the Dotmatics system based on the following equation: % inhibition=[(high control−sample)/(high control−low control)]×100.

[2] = 24 h, 786-O-Hif-Luc cells, about 24 hours
[3] = 786-O-Hif-Luc cells, about 24 hours
[4] = displacement of Compound 120 probe, mean, read-out: Mean SPA IC50
[5] = unnumbered compounds listed by structure and name, read-out: IC50 value in SPA

Sequence of HIF-2α HIS TAG-PASB Domain (Q99814 whole entry, looked up, the tested form may be a part): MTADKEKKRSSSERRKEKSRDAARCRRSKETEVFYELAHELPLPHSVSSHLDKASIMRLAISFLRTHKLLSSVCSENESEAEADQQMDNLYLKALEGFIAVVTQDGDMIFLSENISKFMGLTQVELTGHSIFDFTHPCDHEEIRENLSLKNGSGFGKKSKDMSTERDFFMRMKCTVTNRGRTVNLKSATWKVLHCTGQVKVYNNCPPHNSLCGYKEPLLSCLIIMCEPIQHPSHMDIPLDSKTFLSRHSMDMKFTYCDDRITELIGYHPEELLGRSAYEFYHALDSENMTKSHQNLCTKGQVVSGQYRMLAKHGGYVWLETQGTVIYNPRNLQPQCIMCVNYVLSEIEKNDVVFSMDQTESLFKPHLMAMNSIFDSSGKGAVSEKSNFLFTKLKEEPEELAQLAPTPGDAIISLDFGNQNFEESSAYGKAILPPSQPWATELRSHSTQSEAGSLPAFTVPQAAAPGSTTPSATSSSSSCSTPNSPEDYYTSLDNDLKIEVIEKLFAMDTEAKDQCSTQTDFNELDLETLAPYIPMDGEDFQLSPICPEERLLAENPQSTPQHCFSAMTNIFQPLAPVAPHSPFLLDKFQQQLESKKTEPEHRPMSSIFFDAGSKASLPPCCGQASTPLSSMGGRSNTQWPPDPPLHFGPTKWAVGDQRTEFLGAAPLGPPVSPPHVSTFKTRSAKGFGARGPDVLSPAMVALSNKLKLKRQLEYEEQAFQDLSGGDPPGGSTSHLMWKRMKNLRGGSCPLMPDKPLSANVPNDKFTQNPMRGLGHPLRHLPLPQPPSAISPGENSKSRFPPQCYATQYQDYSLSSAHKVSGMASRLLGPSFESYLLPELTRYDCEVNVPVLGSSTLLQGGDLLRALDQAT

Structure (SMILES) | EC50 (786-O-Hif-Luc cells; [2]) [nM] | IC50 [1, 4] [nM] | further results
O=S1(=O)CC(O)c2c1ccc(Oc1cc(F)cc(Cl)c1)c2Br (stereo not shown) [Compound 6, 4-Bromo-5-(3-chloro-5-fluorophenoxy)-3-hydroxy-2,3-dihydrobenzo[b]thiophene 1,1-dioxide] | – | – | EC50 (786-O-Hif-Luc cells; 24 h): 4850 nM
O=S1(=O)CC(O)c2c1ccc(Oc1cc(F)cc(Cl)c1)c2C(F)F (stereo not shown) [Compound 15, 5-(3-Chloro-5-fluorophenoxy)-4-(difluoromethyl)-3-hydroxy-2,3-dihydrobenzo[b]thiophene 1,1-dioxide] | 730 | – | –
O=S1(=O)c2ccc(Oc3cc(F)cc(Cl)c3)c(C(F)F)c2C(O)C1(F)F (stereo not shown) [Compound 18, 5-(3-Chloro-5-fluorophenoxy)-4-(difluoromethyl)-2,2-difluoro-3-hydroxy-2,3-dihydrobenzo[b]thiophene 1,1-dioxide] | – | – | EC50 (786-O-Hif-Luc cells; [3]): 17 nM
O=S1(=O)CC(O)c2c1ccc(Oc1cc(F)cc(F)c1)c2C(F)F (stereo not shown) [Compound 24, 4-(Difluoromethyl)-5-(3,5-difluorophenoxy)-3-hydroxy-2,3-dihydrobenzo[b]thiophene 1,1-dioxide] | 720 | – | –
N#Cc1cc(F)cc(Oc2ccc3c(c2C(F)F)C(O)C(F)(F)S3(=O)=O)c1 (stereo not shown) [Compound 29, 3-((4-(Difluoromethyl)-2,2-difluoro-3-hydroxy-1,1-dioxido-2,3-dihydrobenzo[b]thiophen-5-yl)oxy)-5-fluorobenzonitrile] | – | – | EC50 (786-O-Hif-Luc cells; [3]): 4 nM
N=S1(=O)c2ccc(Oc3cc(F)cc(F)c3)c(Br)c2C(O)C1(F)F (stereo not shown) [Compound 32, 4-bromo-5-(3,5-difluorophenoxy)-2,2-difluoro-3-hydroxy-1-imino-2,3-dihydro-1H-1λ^4-benzo[b]thiophene 1-oxide] | – | – | EC50 (786-O-Hif-Luc cells; [3]): 290 nM
N#Cc1cc(F)cc(Oc2ccc3c(c2C(F)F)[C@H](O)C(F)(F)S3(=O)=O)c1 [Compound 34, (S)-3-((4-(Difluoromethyl)-2,2-difluoro-3-hydroxy-1,1-dioxido-2,3-dihydrobenzo[b]thiophen-5-yl)oxy)-5-fluorobenzonitrile] | – | – | EC50 (786-O-Hif-Luc cells; 24 h): 20 nM
[2H]C1(O)c2c(ccc(Oc3cc(F)cc(C#N)c3)c2C(F)F)S(=O)(=O)C1(F)F (stereo not shown) [Compound 40, 3-((4-(Difluoromethyl)-2,2-difluoro-3-hydroxy-1,1-dioxido-2,3-dihydrobenzo[b]thiophen-5-yl-3-d)oxy)-5-fluorobenzonitrile] | – | – | EC50 (786-O-Hif-Luc cells; [3]): 12 nM
N#Cc1cc(F)cc(Oc2ccc3c(c2C(F)F)[C@@H](N)C(F)(F)S3(=O)=O)c1 [Compound 41, (R)-3-((3-Amino-4-(difluoromethyl)-2,2-difluoro-1,1-dioxido-2,3-dihydrobenzo[b]thiophen-5-yl)oxy)-5-fluorobenzonitrile] | – | – | EC50 (786-O-Hif-Luc cells; [3]): 140 nM
N#Cc1c(Oc2cc(F)cc(F)c2)ccc2c1C(O)C(F)S2(=O)=O (stereo not shown) [Compound 44, 5-(3,5-Difluorophenoxy)-2-fluoro-3-hydroxy-2,3-dihydrobenzo[b]thiophene-4-carbonitrile 1,1-dioxide] | 790 | – | –
COc1cc(F)cc(Oc2ccc3c(c2C#N)[C@@H](O)C(F)(F)S3(=O)=O)c1 [Compound 81, (R)-2,2-difluoro-5-(3-fluoro-5-methoxyphenoxy)-3-hydroxy-2,3-dihydrobenzo[b]thiophene-4-carbonitrile 1,1-dioxide] | – | – | IC50 [1]: 67 nM
N#Cc1c(Oc2cc(F)cc(F)c2)ccc2c1C(O)(C(F)(F)F)CS2(=O)=O (stereo not shown) [Compound 102, 5-(3,5-Difluorophenoxy)-3-hydroxy-3-(trifluoromethyl)-2,3-dihydrobenzo[b]thiophene-4-carbonitrile 1,1-dioxide] | – | 4600 | –
N#Cc1cc(F)cc(Oc2ccc3c(c2C#N)C(O)(C(F)(F)F)CS3(=O)=O)c1 (stereo not shown) [Compound 104, 5-(3-Cyano-5-fluorophenoxy)-3-hydroxy-3-(trifluoromethyl)-2,3-dihydrobenzo[b]thiophene-4-carbonitrile 1,1-dioxide] | – | 6300 | –
CC1(O)c2c(ccc(OCc3ccccc3)c2C#N)S(=O)(=O)C1(F)F (stereo not shown) [Compound 113, 5-(Benzyloxy)-2,2-difluoro-3-hydroxy-3-methyl-2,3-dihydrobenzo[b]thiophene-4-carbonitrile 1,1-dioxide] | – | 16700 | –
C=CC1(O)c2c(ccc(Oc3cc(F)cc(C#N)c3)c2C#N)S(=O)(=O)C1(F)F (stereo not shown) [Compound 114, 5-(3-Cyano-5-fluorophenoxy)-2,2-difluoro-3-hydroxy-3-vinyl-2,3-dihydrobenzo[b]thiophene-4-carbonitrile 1,1-dioxide] | – | > 100000 | –
CC1(O)c2c(ccc(OC3CC(F)(F)C3)c2C#N)S(=O)(=O)C1(F)F (stereo not shown) [Compound 115, 5-(3,3-Difluorocyclobutoxy)-2,2-difluoro-3-hydroxy-3-methyl-2,3-dihydrobenzo[b]thiophene-4-carbonitrile 1,1-dioxide] | – | 6700 | –
N=S1(=O)CC(O)c2c1ccc(Oc1cc(F)cc(F)c1)c2Br (stereo not shown) [[4-bromo-5-(3,5-difluorophenoxy)-3-hydroxy-1-imino-2,3-dihydro-1λ^4-benzo[b]thiophene 1-oxide] | – | – | IC50 [1, 5]: > 100000 nM
N#CN=S1(=O)C[C@H](O)c2c1ccc(Oc1cc(F)cc(F)c1)c2Cl (stereo partly drawn) [[(3R)-4-chloro-5-(3,5-difluorophenoxy)-3-hydroxy-1-oxo-2,3-dihydrobenzothiophen-1-ylidene]cyanamide] | – | – | IC50 [1, 5]: 25000 to 100000 nM

More lines, main results first:

EC50 (786-O-Hif-Luc cells; [2]) [nM] | IC50 [1, 4] [nM] | Structure (SMILES) | further results
– | 1920 | O=S1(=O)c2ccc(OC3CCOCC3)c(C(F)F)c2C(O)C1(F)F (stereo not shown) [Compound 54, 4-(Difluoromethyl)-2,2-difluoro-3-hydroxy-5-((tetrahydro-2H-pyran-4-yl)oxy)-2,3-dihydrobenzo[b]thiophene 1,1-dioxide] | –
– | 170 | N#CN=S1(=O)c2ccc(Oc3cc(F)cc(F)c3)c(Cl)c2[C@@H](O)C1(F)F (stereo partly drawn) [Compound 66, N-((3R)-4-Chloro-5-(3,5-difluorophenoxy)-2,2-difluoro-3-hydroxy-1-oxido-2,3-dihydro-1λ^4-benzo[b]thiophen-1-ylidene)cyanamide] | –
– | 120 | O=S1(=O)c2ccc(Oc3cncc(Cl)c3)c(Br)c2[C@@H](O)C1(F)F [Compound 75, (R)-4-bromo-5-((5-chloropyridin-3-yl)oxy)-2,2-difluoro-3-hydroxy-2,3-dihydrobenzo[b]thiophene 1,1-dioxide] | –
– | 310 | O=S1(=O)c2ccc(Oc3cncc(F)c3)c(Br)c2[C@@H](O)C1(F)F [Compound 77, (R)-4-bromo-2,2-difluoro-5-((5-fluoropyridin-3-yl)oxy)-3-hydroxy-2,3-dihydrobenzo[b]thiophene 1,1-dioxide] | –
410 | – | COc1cc(F)cc(Oc2ccc3c(c2Br)[C@@H](O)C(F)(F)S3(=O)=O)c1 [Compound 80, (R)-4-Bromo-2,2-difluoro-5-(3-fluoro-5-methoxyphenoxy)-3-hydroxy-2,3-dihydrobenzo[b]thiophene 1,1-dioxide] | –
– | 2930 | Cc1cncc(Oc2ccc3c(c2Br)[C@@H](O)C(F)(F)S3(=O)=O)c1 [Compound 82, (R)-4-bromo-2,2-difluoro-3-hydroxy-5-((5-methylpyridin-3-yl)oxy)-2,3-dihydrobenzo[b]thiophene 1,1-dioxide] | –
33 | – | N#Cc1cccc(Oc2ccc3c(c2Br)[C@@H](O)C(F)(F)S3(=O)=O)c1 [Compound 84, (R)-3-((4-bromo-2,2-difluoro-3-hydroxy-1,1-dioxido-2,3-dihydrobenzo[b]thiophen-5-yl)oxy)benzonitrile] | –
– | 380 | O=S1(=O)c2ccc(Oc3cncc(Cl)c3)c(Cl)c2[C@@H](O)C1(F)F [Compound 86, (R)-4-Chloro-5-((5-chloropyridin-3-yl)oxy)-2,2-difluoro-3-hydroxy-2,3-dihydrobenzo[b]thiophene 1,1-dioxide] | –
880 | – | N#Cc1cc(F)cc(Oc2ccc3c(c2F)C(O)C(F)(F)S3(=O)=O)c1 (stereo not shown) [Compound 88, 3-Fluoro-5-((2,2,4-trifluoro-3-hydroxy-1,1-dioxido-2,3-dihydrobenzo[b]thiophen-5-yl)oxy)benzonitrile] | –
310 | – | N#Cc1cc(Oc2ccc3c(c2C(F)F)[C@@H](O)C(F)(F)S3(=O)=O)ccc1F [Compound 91, (R)-5-((4-(Difluoromethyl)-2,2-difluoro-3-hydroxy-1,1-dioxido-2,3-dihydrobenzo[b]thiophen-5-yl)oxy)-2-fluorobenzonitrile] | –
6890 | – | O=S1(=O)c2ccc(Oc3cccc4cn[nH]c34)c(C(F)F)c2C(O)C1(F)F (stereo not shown) [Compound 95, 5-((1H-Indazol-7-yl)oxy)-4-(difluoromethyl)-2,2-difluoro-3-hydroxy-2,3-dihydrobenzo[b]thiophene 1,1-dioxide] | –
48 | – | CC1(O)c2c(ccc(Oc3cc(F)cc(C#N)c3)c2C#N)S(=O)(=O)C1(F)F (stereo not shown) [Compound 105, 5-(3-Cyano-5-fluorophenoxy)-2,2-difluoro-3-hydroxy-3-methyl-2,3-dihydrobenzo[b]thiophene-4-carbonitrile 1,1-dioxide] | –
6700 | – | N#CC1(COc2ccc3c(c2C(F)F)C(O)C(F)(F)S3(=O)=O)CC1 (stereo not shown) [Compound 109, 1-(((4-(difluoromethyl)-2,2-difluoro-3-hydroxy-1,1-dioxido-2,3-dihydrobenzo[b]thiophen-5-yl)oxy)methyl)cyclopropane-1-carbonitrile] | –
